Results: ChEMBL document CHEMBL1136580, “Enterolosaponins A and B, novel triterpene bisdesmosides from Enterolobium contortisiliquum, and evaluation for their macrophage-oriented cytotoxic activity” (Bioorg Med Chem Lett, 2003)

Experiment: Compound was tested for its cytotoxic activity against BACI.2F5 mouse macrophages
Conditions: read-out: LD50 (the source's name)

Compound `CC(=O)N[C@@H]1[C@H](O[C@H]2CC[C@]3(C)[C@H]4CC=C5[C@@H]6CC(C)(C)[C@@H](OC(=O)/C=C/c7ccccc7)C[C@]6(C(=O)O[C@@H]6O[C@@H](CO)[C@@H](O)[C@H](O)[C@@H]6O[C@@H]6O[C@@H](C)[C@H](O[C@@H]7O[C@@H](CO)[C@H](O)[C@H]7O)[C@H](O[C@@H]7O[C@@H](CO)[C@@H](O)[C@H](O)[C@@H]7O)[C@H]6O)CC[C@@]5(C)[C@]4(C)CC[C@H]3C2(C)C)O[C@@H](CO[C@@H]2OC[C@H](O)[C@@H](O)[C@@H]2O[C@@H]2OC[C@@H](O)[C@H](O)[C@@H]2O)[C@@H](O)[C@@H]1O` has a CC50 of at most 3000 nM.
